# Reference: PMC9973354 (mBio, 2022)
# Starred links: 1 amine or outer side, 2 acyl side, 3 side chain; linkers in the order of their positions; H or OH if unused. Positions of bridges follow the written chain, without caps; N, C: chain ends. Non-standard residues stand in square brackets, D forms with d. Residues, ends and D or L forms follow the SMILES beside them. ξ: configuration not given here. X1 = O=C([C@@H]1CCN=C2C(N[*:1])=Cc3cc(O)c(O)cc3N21)[*:2]; ξOrn(N(OH)CHO) = NC(CCCN(O)C=O)C(=O)O; Suc = O=C(CCC(=O)[*:2])[*:1]; ξK = NCCCCC(N)C(=O)O; ξS = NC(CO)C(=O)O
# Columns and labels:
# [1] = system: PA14 ΔfpvA ΔfpvB pHERD20T-fpvA; test: Checkerboard assay TS and siderophores, FpvA expressed; type: cell-based, Pseudomonas aeruginosa; settings: 10:90 + 2% arabinose
# Source text: (§1) We investigated this hypothesis by treating the ΔfpvA ΔfpvB mutant complemented with fpvA or fpvB with TS and pyoverdine-Fe^3+. If pyoverdine competes with TS for the same binding site in the transporter, a reduction in TS susceptibility would be expected, as competition would decrease entry of the antibiotic into the cell. TS susceptibility decreased >8-fold with increasing concentrations of pyoverdine-Fe^3+ when FpvA was expressed (see Fig. S2A in the supplemental material).
# (§2) Supplementary file : FIG S2 Checkerboard assays of the PA14 ΔfpvA ΔfpvB strain complemented with fpvA and fpvB in trans with TS and siderophores. […] Checkerboards of the PA14 ΔfpvA ΔfpvB pHERD20T-fpvB strain with TS and enterobactin (G), ferrioxamine E (H), and arthrobactin (I). Results are averaged from three independent biological replicates. Cells in the assay were grown in 10:90 + 2% arabinose. Download FIG S2, EPS file, 2.2 MB.
# Checkerboards (8 rows by 8 columns) were conducted as previously described in a 96-well plate (Nunc) ([13], [14]). TS at 75× the final concentration dissolved in DMSO was added in columns from bottom to top in increasing concentrations. Siderophores at 75× the final concentration dissolved in DSMO were added from in rows from left to right in increasing concentrations. Four columns were used for vehicle controls (DMSO) and sterile controls. […] Plates were sealed to prevent evaporation and incubated at 37°C overnight in a shaking incubator (200 rpm). The next day, the OD600 was determined with a plate reader (Thermo Scientific) and normalized to percent of growth of the vehicle control (DMSO) after subtracting the OD600 from blank media.
# [2] = target: T1, FpvA T660C (Pseudomonas aeruginosa, UniProt P48632, T660C); test: Whole-cell fluorescence quenching, FpvA T660C; type: binding; settings: cells expressing FpvA T660C
# T1 construct: expressed in transfected cells; host or cells: P. aeruginosa PA14 ΔfpvA ΔfpvB, plasmid pHERD20T-fpvA T660C, arabinose-induced
# T1 sequence (P48632 44-815 T660C): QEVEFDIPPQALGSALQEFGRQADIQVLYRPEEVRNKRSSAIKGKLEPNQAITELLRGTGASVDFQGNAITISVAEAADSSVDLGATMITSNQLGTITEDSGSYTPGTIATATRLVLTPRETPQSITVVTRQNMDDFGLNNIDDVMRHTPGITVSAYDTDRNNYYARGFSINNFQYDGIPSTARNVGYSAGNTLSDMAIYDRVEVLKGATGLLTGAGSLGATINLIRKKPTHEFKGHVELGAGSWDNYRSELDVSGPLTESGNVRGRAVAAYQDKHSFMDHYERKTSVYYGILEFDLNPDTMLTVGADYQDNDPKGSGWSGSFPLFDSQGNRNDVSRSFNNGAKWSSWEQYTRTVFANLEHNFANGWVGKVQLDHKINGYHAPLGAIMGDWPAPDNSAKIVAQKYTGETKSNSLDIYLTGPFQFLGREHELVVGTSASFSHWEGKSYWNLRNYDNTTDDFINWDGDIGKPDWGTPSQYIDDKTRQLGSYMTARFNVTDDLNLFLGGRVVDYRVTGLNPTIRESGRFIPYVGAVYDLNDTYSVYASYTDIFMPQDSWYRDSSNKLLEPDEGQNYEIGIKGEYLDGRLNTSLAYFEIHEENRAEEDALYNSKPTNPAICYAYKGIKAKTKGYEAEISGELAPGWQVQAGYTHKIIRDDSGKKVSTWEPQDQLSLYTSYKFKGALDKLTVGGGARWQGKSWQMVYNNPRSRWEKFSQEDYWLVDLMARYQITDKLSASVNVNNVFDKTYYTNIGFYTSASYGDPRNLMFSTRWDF
# Source text: (§3) To determine the affinity of the siderophores for FpvA and FpvB, we adapted the method from Chakravorty et al. to generate a whole-cell sensor where fluorescence quenching serves as an indicator of ligand interaction ([31]). Siderophore binding triggers conformational changes at the extracellular loops of the TBDT (Fig. 3A). Cys substitutions were introduced at the loops and labeled with a fluorescent maleimide dye. When a ligand binds the transporter, the loops fold inward toward the lumen of the barrel, and changes in the chemical environment surrounding the fluorophore lead to quenching ([31], [32]). Fluorescence recovery occurs once the siderophore is taken up and the loop returns to its original conformation.
# Cells were cultured overnight in LB with carbenicillin (200 μg/mL) at 37°C with shaking at 200 rpm. […] Cells were harvested by centrifugation for 5 min and 6,000 × g and resuspended in sterile 1× phosphate-buffered saline (PBS) (pH 7.4); 1× PBS was made from a 10× stock (80 g NaCl, 2 g KCl, 26.8 g Na2 HPO4-7H2O, 2.4 g KH2PO4 in 1 L of deionized H2O) with 10 μM Alexa Fluor 594 C5 maleimide for microscopy or fluorescein-5-maleimide for fluorescence quenching and recovery assays and incubated in the dark at room temperature for 30 min on a shaking incubator at 37°C (200 rpm). […]
# [3] = target: T2, FpvB W347V R648C (Pseudomonas aeruginosa, UniProt A0A0H2ZFZ5, R648C/W347V); test: Whole-cell fluorescence quenching, FpvB W347V R648C; type: binding
# T2 sequence (A0A0H2ZFZ5 23-802 W347V/R648C): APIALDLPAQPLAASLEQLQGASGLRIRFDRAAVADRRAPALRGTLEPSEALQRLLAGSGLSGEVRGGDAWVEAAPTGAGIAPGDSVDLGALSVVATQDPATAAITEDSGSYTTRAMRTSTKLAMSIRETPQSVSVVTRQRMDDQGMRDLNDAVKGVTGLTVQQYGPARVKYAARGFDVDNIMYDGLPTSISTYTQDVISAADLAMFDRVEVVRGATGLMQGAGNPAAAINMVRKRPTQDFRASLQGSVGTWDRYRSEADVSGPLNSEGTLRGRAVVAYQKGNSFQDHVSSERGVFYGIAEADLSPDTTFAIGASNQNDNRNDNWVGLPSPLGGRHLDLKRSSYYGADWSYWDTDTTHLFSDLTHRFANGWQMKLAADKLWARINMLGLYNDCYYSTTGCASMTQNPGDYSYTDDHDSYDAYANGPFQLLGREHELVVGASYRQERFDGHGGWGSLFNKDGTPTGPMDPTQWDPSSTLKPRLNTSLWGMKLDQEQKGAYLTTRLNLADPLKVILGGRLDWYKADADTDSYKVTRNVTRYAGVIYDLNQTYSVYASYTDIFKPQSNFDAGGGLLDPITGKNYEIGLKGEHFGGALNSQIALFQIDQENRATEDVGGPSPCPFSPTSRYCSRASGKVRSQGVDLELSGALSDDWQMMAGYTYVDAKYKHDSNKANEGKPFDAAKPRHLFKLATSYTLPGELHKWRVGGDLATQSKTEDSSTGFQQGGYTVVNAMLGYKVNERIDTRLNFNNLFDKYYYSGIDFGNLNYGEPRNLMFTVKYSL
# Protocol: (§4) Quenching assays with the two xenosiderophores were repeated for the quadruple TBDT mutant expressing WT FpvB, FpvB R191A R648C, or W347V R648C.
# (§5) Cells were cultured overnight in LB with carbenicillin (200 μg/mL) at 37°C with shaking at 200 rpm. Cells were subcultured (1:200 dilution) in 10:90 plus 2% arabinose for 4 h without carbenicillin at 37°C with shaking at 200 rpm. Cells were harvested by centrifugation for 5 min and 6,000 × g and resuspended in sterile 1× phosphate-buffered saline (PBS) (pH 7.4); 1× PBS was made from a 10× stock (80 g NaCl, 2 g KCl, 26.8 g Na2 HPO4-7H2O, 2.4 g KH2PO4 in 1 L of deionized H2O) with 10 μM Alexa Fluor 594 C5 maleimide for microscopy or fluorescein-5-maleimide for fluorescence quenching and recovery assays and incubated in the dark at room temperature for 30 min on a shaking incubator at 37°C (200 rpm). Excess dye was quenched with 1 mM dithiothreitol (DTT) (Sigma) to stop the reaction. Cells were washed 3× with PBS. For fluorescence recovery assays, cells were incubated with 1× PBS plus 0.4% glucose at 37°C with shaking at 200 rpm. Glucose was prepared as a 20% stock (wt/vol) in 1× PBS and filter sterilized. Cells were spun down and washed 3× with 1× PBS and resuspended in 1× PBS for quenching assays and 1× PBS plus 0.4% glucose for fluorescence recovery assays.
# (§6) For fluorescence quenching and recovery assays, cells were diluted to an OD600 of 0.1 for both types of assays, and 148 μL was added into wells of a 96-well black plate (Corning). Fluorescence was recorded for 5 min at 1-min intervals at 37°C (BioTek Neo; excitation, 494 nm; emission, 520 nm). After 5 min, 2 μL of each serial dilution for ferrioxamine-Fe^3+, ferrichrome-Fe^3+, and pyoverdine-Fe^3+ or DMSO for vehicle controls was added to each well. Fluorescence was recorded immediately for quenching assays and for 1 h at 1-min intervals for fluorescence recovery assays. Background fluorescence was subtracted from all fluorescence readings and 1-F/F0 was used to calculate the degree of quenching, where F0 is the initial fluorescence. Kd was calculated using GraphPad Prism using a one-site specific binding model or a two-site model. For fluorescence recovery assays, background was subtracted from all fluorescence readings and F/F0 expressed as a percent of control was plotted versus time.
# [4] = target: T3, FpvB R648C (Pseudomonas aeruginosa, UniProt A0A0H2ZFZ5, R648C); test: Whole-cell fluorescence quenching, FpvB R648C in ΔfpvA ΔfpvB; type: binding
# T3 sequence (A0A0H2ZFZ5 23-802 R648C): T2 sequence (A0A0H2ZFZ5 23-802 W347V/R648C)
# Source text: as §3
# Cells were cultured overnight in LB with carbenicillin (200 μg/mL) at 37°C with shaking at 200 rpm. Cells were subcultured (1:200 dilution) in 10:90 plus 2% arabinose for 4 h without carbenicillin at 37°C with shaking at 200 rpm. […] Excess dye was quenched with 1 mM dithiothreitol (DTT) (Sigma) to stop the reaction. Cells were washed 3× with PBS. For fluorescence recovery assays, cells were incubated with 1× PBS plus 0.4% glucose at 37°C with shaking at 200 rpm. Glucose was prepared as a 20% stock (wt/vol) in 1× PBS and filter sterilized. Cells were spun down and washed 3× with 1× PBS and resuspended in 1× PBS for quenching assays and 1× PBS plus 0.4% glucose for fluorescence recovery assays.
# as §6
# [5] = target: T4, FpvB R191A R648C (Pseudomonas aeruginosa, UniProt A0A0H2ZFZ5, R191A/R648C); test: Whole-cell fluorescence quenching, FpvB R191A R648C; type: binding
# T4 sequence (A0A0H2ZFZ5 23-802 R191A/R648C): T2 sequence (A0A0H2ZFZ5 23-802 W347V/R648C)
# Protocol: as §4, §5, §6
# [6] = target: T3, FpvB R648C; test: Whole-cell fluorescence quenching, FpvB R648C in quadruple mutant; type: binding
# Protocol: as §4, §5, §6
# [7] = system: PA14 ΔfpvA ΔfpvB pHERD20T-fpvB; test: Checkerboard assay TS and siderophores, FpvB expressed; type: cell-based, Pseudomonas aeruginosa; settings: 10:90 + 2% arabinose
# Source text: as §1, §2
# Checkerboards (8 rows by 8 columns) were conducted as previously described in a 96-well plate (Nunc) ([13], [14]). TS at 75× the final concentration dissolved in DMSO was added in columns from bottom to top in increasing concentrations. […] The next day, the OD600 was determined with a plate reader (Thermo Scientific) and normalized to percent of growth of the vehicle control (DMSO) after subtracting the OD600 from blank media.
# [8] = target: T3, FpvB R648C; test: Fluorescence recovery assay (siderophore uptake by FpvB); type: cell-based; settings: siderophore at 1/2 Kd (1/2 Kd2 for ferrioxamine B), recorded for 1 h
# Protocol: Cells were equilibrated for 5 min prior to introduction of the siderophores. Fluorescence was recorded every min for 1 h. Carbonyl cyanide m-chlorophenylhydrazone (CCCP) was used as a control to inhibit fluorescence recovery through dissipation of the proton motive force (PMF) ([2], [3]), which is required for uptake.
# as §5, with “Glucose was prepared as a 20% stock (wt/vol) in 1× PBS and filter sterilized.” left out
# as §6, with “After 5 min, 2 μL of each serial dilution for ferrioxamine-Fe^3+, ferrichrome-Fe^3+, and pyoverdine-Fe^3+ or DMSO for vehicle controls was added to each well.” left out, “For fluorescence recovery assays, background was subtracted from all fluorescence readings and F/F0 expressed as a percent of control was plotted versus time.” left out
# [9] = FpvB R648C in quadruple mutant, two-site model
molecule,measurement,setting,value
O=C(N[C@H]1COC(=O)[C@@H](NC(=O)c2cccc(O)c2O)COC(=O)[C@@H](NC(=O)c2cccc(O)c2O)COC1=O)c1cccc(O)c1O [enterobactin],effect of siderophore on TS susceptibility,[1],None of those siderophores reduced TS susceptibility
CC(=O)N(O)CCCCCNC(=O)CC(O)(CC(=O)NCCCCCN(O)C(C)=O)C(=O)O [arthrobactin],effect of siderophore on TS susceptibility,[1],None of those siderophores reduced TS susceptibility
CC(=O)N([O-])CCCCCNC(=O)CCC(=O)N([O-])CCCCCNC(=O)CCC(=O)N([O-])CCCCCN.[Fe+3] [ferrioxamine B-Fe^3+],fluorescence quenching,[2],No quenching
same,Kd,"[3]; FpvB W347V R648C, one-site model",490 ± 68 µg/mL
same,Kd1,"[4]; FpvB R648C in ΔfpvA ΔfpvB, two-site model, higher-affinity site",1.0 × 10^2 ± 50 ng/mL
same,Kd2,"[4]; FpvB R648C in ΔfpvA ΔfpvB, two-site model, lower-affinity site",270000 ± 47000 ng/mL
same,Kd,"[5]; FpvB R191A R648C, one-site model",300 ± 43 µg/mL
same,Kd1,[6]; [9],1.0x10^2 ± 59 ng/mL
same,Kd2,[6]; [9],370000 ± 95000 ng/mL
ferrichrome-Fe^3+,fluorescence quenching,[2],~ 20%
same,increase of Kd by the mutation,[3]; W347V versus FpvB R648C,> 76 fold
same,increase of Kd by the mutation,[5]; R191A versus FpvB R648C,76 fold
same,Kd,[6]; FpvB R648C in ΔfpvA ΔfpvB ΔfiuA ΔfoxA,8.5 ± 0.80 ng/mL
NCCCCC(NC(=O)C(CO)NC(=O)[C@@H]1CCN=C2C(NC(=O)CCC(=O)O)=Cc3cc(O)c(O)cc3N21)C(=O)NCC(=O)NC(CCCN(O)C=O)C(=O)NC1CCCCNC(=O)C(CO)NC(=O)C(CCCN(O)C=O)NC1=O.[Fe+3] (stereo partly shown) [pyoverdine-Fe^3+] (Suc-[X1][ξS][ξK]G[ξOrn(N(OH)CHO)][ξK][ξOrn(N(OH)CHO)][ξS]; lactam 6-C),effect of siderophore on TS susceptibility,[7],did not impact TS susceptibility
same,Kd for FpvB relative to FpvA,[4]; higher for FpvB,200 fold
same,fluorescence recovery,[8],No recovery
